Laboratory results reported in the NIST ThermoML archive (doi:10.1016/j.tca.2005.10.007).
± gives the expanded uncertainty stated by the source.

Conditions: 101.33 kPa, Liquid, Vibrating tube method

CC(O)CN (configuration not stated) [1-amino-2-propanol]
Conditions	mass density [kg/m3]
278.16 K	972.17 ± 0.49
278.65 K	971.79 ± 0.49
279.14 K	971.4 ± 0.49
279.65 K	971.01 ± 0.49
280.15 K	970.62 ± 0.49
280.65 K	970.23 ± 0.49
281.15 K	969.84 ± 0.49
281.65 K	969.45 ± 0.49
282.15 K	969.05 ± 0.49
282.65 K	968.66 ± 0.49
283.15 K	968.27 ± 0.49
283.65 K	967.88 ± 0.49
284.15 K	967.49 ± 0.49
284.65 K	967.1 ± 0.49
285.15 K	966.7 ± 0.49
285.65 K	966.31 ± 0.49
286.15 K	965.92 ± 0.49
286.64 K	965.52 ± 0.49
287.15 K	965.13 ± 0.49
287.65 K	964.73 ± 0.49
288.15 K	964.34 ± 0.49
288.65 K	963.95 ± 0.49
289.15 K	963.55 ± 0.49
289.65 K	963.15 ± 0.49
290.15 K	962.76 ± 0.49
290.65 K	962.36 ± 0.49
291.15 K	961.97 ± 0.49
291.64 K	961.57 ± 0.49
292.15 K	961.18 ± 0.49
292.65 K	960.78 ± 0.49
293.15 K	960.38 ± 0.49
293.64 K	959.99 ± 0.49
294.14 K	959.59 ± 0.49
294.64 K	959.19 ± 0.49
295.15 K	958.79 ± 0.49
295.65 K	958.39 ± 0.49
296.15 K	957.99 ± 0.49
296.65 K	957.6 ± 0.49
297.15 K	957.2 ± 0.49
297.64 K	956.8 ± 0.49
298.15 K	956.4 ± 0.49
298.65 K	956 ± 0.49
299.15 K	955.6 ± 0.49
299.64 K	955.2 ± 0.49
300.14 K	954.8 ± 0.49
300.64 K	954.4 ± 0.49
301.15 K	954 ± 0.49
301.65 K	953.59 ± 0.49
302.14 K	953.2 ± 0.5
302.65 K	952.79 ± 0.49
303.15 K	952.39 ± 0.49
303.64 K	951.99 ± 0.49
304.15 K	951.59 ± 0.49
304.65 K	951.18 ± 0.49
305.15 K	950.78 ± 0.48
305.64 K	950.38 ± 0.48
306.15 K	949.98 ± 0.48
306.65 K	949.57 ± 0.48
307.15 K	949.17 ± 0.48
307.64 K	948.77 ± 0.48
308.15 K	948.36 ± 0.48
308.65 K	947.95 ± 0.48
309.15 K	947.55 ± 0.48
309.65 K	947.14 ± 0.48
310.15 K	946.74 ± 0.48
310.65 K	946.33 ± 0.48
311.15 K	945.92 ± 0.48
311.64 K	945.52 ± 0.48
312.15 K	945.11 ± 0.48
312.64 K	944.7 ± 0.5
313.15 K	944.3 ± 0.48
313.65 K	943.89 ± 0.48
314.15 K	943.48 ± 0.48
314.65 K	943.07 ± 0.48
315.15 K	942.66 ± 0.48
315.65 K	942.25 ± 0.48
316.15 K	941.84 ± 0.48
316.65 K	941.43 ± 0.48
317.15 K	941.03 ± 0.48
317.65 K	940.61 ± 0.48
318.15 K	940.2 ± 0.48
318.65 K	939.79 ± 0.48
319.14 K	939.38 ± 0.48
319.65 K	938.96 ± 0.48
320.15 K	938.55 ± 0.48
320.64 K	938.14 ± 0.48
321.15 K	937.72 ± 0.48
321.65 K	937.31 ± 0.48
322.15 K	936.9 ± 0.48
322.65 K	936.49 ± 0.48
323.15 K	936.08 ± 0.48
323.65 K	935.66 ± 0.48
324.15 K	935.25 ± 0.48
324.65 K	934.83 ± 0.48
325.15 K	934.42 ± 0.48
325.65 K	934.01 ± 0.48
326.15 K	933.59 ± 0.48
326.65 K	933.18 ± 0.48
327.15 K	932.76 ± 0.48
327.65 K	932.35 ± 0.48
328.15 K	931.93 ± 0.48
328.66 K	931.51 ± 0.48
329.15 K	931.09 ± 0.48
329.66 K	930.68 ± 0.48
330.16 K	930.26 ± 0.48
330.66 K	929.84 ± 0.48
331.15 K	929.42 ± 0.48
331.66 K	929 ± 0.48
332.16 K	928.58 ± 0.48
332.66 K	928.16 ± 0.48
333.16 K	927.74 ± 0.48
333.66 K	927.31 ± 0.48
334.16 K	926.89 ± 0.47
334.66 K	926.47 ± 0.47
335.16 K	926.05 ± 0.47
335.66 K	925.63 ± 0.47
336.16 K	925.2 ± 0.47
336.66 K	924.78 ± 0.47
337.16 K	924.36 ± 0.47
337.66 K	923.93 ± 0.47
338.16 K	923.5 ± 0.47
338.66 K	923.08 ± 0.47
339.16 K	922.65 ± 0.47
339.66 K	922.23 ± 0.47
340.16 K	921.8 ± 0.47
340.66 K	921.38 ± 0.47
341.16 K	920.95 ± 0.47
341.66 K	920.52 ± 0.47
342.16 K	920.09 ± 0.47
342.66 K	919.66 ± 0.47
343.16 K	919.23 ± 0.47
343.66 K	918.8 ± 0.5
344.16 K	918.37 ± 0.47
344.66 K	917.94 ± 0.47
345.16 K	917.51 ± 0.47
345.66 K	917.08 ± 0.47
346.16 K	916.65 ± 0.47
346.66 K	916.21 ± 0.47
347.16 K	915.78 ± 0.47
347.66 K	915.35 ± 0.47
348.16 K	914.92 ± 0.47
348.66 K	914.48 ± 0.47
349.16 K	914.05 ± 0.47
349.66 K	913.61 ± 0.47
350.16 K	913.18 ± 0.47
350.66 K	912.74 ± 0.47
351.16 K	912.3 ± 0.5
351.66 K	911.87 ± 0.47
352.16 K	911.43 ± 0.47
352.66 K	910.99 ± 0.47
353.16 K	910.55 ± 0.47
353.66 K	910.12 ± 0.47
354.16 K	909.68 ± 0.47
354.66 K	909.23 ± 0.47
355.16 K	908.8 ± 0.5
355.66 K	908.35 ± 0.47
356.16 K	907.91 ± 0.47
356.66 K	907.47 ± 0.47
357.16 K	907.03 ± 0.47
357.66 K	906.59 ± 0.47
358.16 K	906.14 ± 0.47
358.66 K	905.7 ± 0.5
359.16 K	905.26 ± 0.47
359.66 K	904.81 ± 0.47
360.16 K	904.36 ± 0.47
360.65 K	903.92 ± 0.47
361.16 K	903.47 ± 0.47
361.66 K	903.03 ± 0.47
362.16 K	902.58 ± 0.47
362.66 K	902.13 ± 0.47
363.15 K	901.68 ± 0.46
363.16 K	901.69 ± 0.46
